Assays:
HCT116 p53^wt cells [1] = test: Western blot analysis of protein expression; type: cell-based, Human
MCF-7 cells [2] = test: Synchronization-release assay (serum starvation and release); type: cell-based, Human; settings: pre-treatment during 2 days serum starvation, release 10% FBS 24 hr
Excerpt: Cyclin D1 is a key modulator of the transition through the G1/S checkpoint and is known to be sensitive to proliferative signals delivered by the mitogens. To evaluate the interplay between the mitogens provided by the serum and LCAHA, we performed a synchronization-release assay on the cells treated with LCAHA. To assess the involvement of cyclin D1 in this interplay, we used MCF-7 (cyclin D1-dependent) and SAOS-2 (cyclin D1-negative) cells. The cells were synchronized in G0/G1 by the removal of fetal bovine serum (FBS) for 2 days of the culture in the presence of LCAHA. After this time, the cells were released by the addition of medium containing 10% FBS for 24 hr (still in the presence of the compound).
Figure S4. The analysis of the progression of MCF-7 and SAOS-2 cells through the cell cycle following serum starvation and release by the addition of serum. Related to […]
For the experiment, cyclin D1-dependent MCF-7 and cyclin D1-negative SAOS-2 cell lines were used.
The cells were synchronized in G0/G1 by the removal of FBS for 2 days of the culture in the presence of LCAHA compound. […] The cells were fixed, stained with PI and analysed for cell cycle distribution with ModFit LT Software. […] The statistical significance was evaluated using t-test: * p<0.05, ** […]

[3] = system: CCND1 mRNA in HCT116, MCF-7, and U-2 OS; test: RT-PCR of CCND1 mRNA; type: cell-based, Human; settings: 10 μM, 48 hr
Description: To characterize the mechanism of cyclin D1 downregulation by LCAHA, we first examined the level of CCND1 mRNA. […] In SAOS-2 cells CCND1 mRNA was not detected.
Total RNA was isolated with Renozol (GenoPlast Biochemicals) according to the manufacturer’s instructions. Five hundred ng of RNA was reverse-transcribed using M-MLV RT (Promega) and oligo-dT primer. RT PCR was performed with the use of GoTaq qPCR Master Mix (Promega) and the following primers: for CCND1 mRNA: […] and […], for GAPDH mRNA: […] and […] ([Yin et al., 2001]). The hybridization step was carried out at 60°C and the program involved 30 amplification cycles. The products were separated on 1% agarose gel and visualized with ChemiDoc MP system.

MCF-7 cells [4] = test: MTT assay, 6 days; type: cell-based, Human
Description: (§1) In addition a colony-forming assay was performed on cyclin D1-addicted MCF-7 cells and cyclin D1-negative SAOS-2 cells.
(§2) For MTT assay, the cells were seeded on 96-well transparent plates and treated the next day with the compounds or DMSO for 6 days. Thiazolyl Blue Tetrazolium Bromide (MTT, Sigma Aldrich) was added for 60 minutes to a final concentration of […]. The medium was removed and MTT crystals were dissolved in isopropanol supplemented with 40 mM HCl. The absorbance was measured with Infinite 200 microplate reader (Tecan Group Ltd.) at 570 nm with the reference wavelength 650 nm for background subtraction.

SAOS-2 cells = test: MTT assay, 6 days; type: cell-based, Human
Description: as §1, §2

U-2 OS cells [5] = test: MTT assay, 6 days; type: cell-based, Human
Description: as §1, §2

HCT116 p53^wt cells [6] = test: Caspase 3/7 activity (Caspase-Glo 3/7); type: cell-based, Human
Description: To evaluate whether the observed effects are accompanied by the induction of apoptosis, we examined the activation of caspases 3 and 7 in HCT116 p53^wt cells.
The cells were plated on the 96-well white, flat bottom plates (Falcon) and treated with DMSO, LCAHA or Staurosporine. For the detection of caspase activity Caspase-Glo 3/7 Assay System was used (Promega) according to the manufacturer’s instructions.

U-2 OS cells [7] = test: Western blot analysis of cyclin D1 expression; type: cell-based, Human; settings: 10 μM, 48 hr
HCT116 p53^wt cells [8] = test: Western blot analysis of protein expression; type: cell-based, Human; remark: listed apart in the source
Excerpt: (§3) The progression from G1 to S phase relies largely on the expression and activity of D cyclins. To verify whether the observed impairment in cell-cycle progression following LCAHA treatment is associated with D cyclins, we investigated the expression of cyclins D1 and D3 in HCT116 p53^wt and HCT116 p53^−/− cells.

HCT116 p53^−/− cells = test: Western blot analysis of protein expression; type: cell-based, Human; settings: 5 or 20 μM, 48 hr
Excerpt: as §3

HCT116 cells = test: Western blot analysis of USP2a targets Aurora A and cyclin A1; settings: 5 μM and 20 μM, 48 hr
Description: Total cell lysates were prepared with RIPA buffer (Sigma Aldrich) containing protease inhibitor cocktail (Sigma Aldrich) alone or with phosphatase inhibitor cocktail (Roche). Following the electrophoresis and transfer, PVDF membranes were blocked with 4% BSA (BioShop) in TBS-N buffer and incubated with primary antibody at 4°C overnight. After four washes, the addition of secondary antibodies and additional four washes, the detection was performed using Clarity Western ECL Substrate (BioRad) and ChemiDoc MP system (BioRad). The densitometry analysis was performed with Image Lab software (BioRad). All measured values, besides cyclin D1 stability experiment, were normalized to GAPDH or α-tubulin expression level.

HCT116 p53^wt cells [9] = test: Cell numbers from pictures of Hoechst-stained cells; type: cell-based, Human; settings: 3 days, DMSO 6452
Description: The cells were plated on the 96-well white, flat bottom plates (Falcon) and treated with DMSO, LCAHA or Staurosporine. For the detection of caspase activity Caspase-Glo 3/7 Assay System was used (Promega) according to the manufacturer’s instructions. Due to the observed growth-inhibitory properties of LCAHA the results were normalized to cell numbers, calculated from the pictures of Hoechst-stained cells seeded on transparent culture plates and treated identically as the cells seeded for caspase activity assay (mean nuclei number per picture was 6452 for 3 days treatment with DMSO, and 3957, 4229 and 2783 for the cells treated with increasing concentrations of LCAHA).

C[C@H](CCC(=O)NO)[C@H]1CC[C@H]2[C@@H]3CC[C@@H]4C[C@H](O)CC[C@]4(C)[C@H]3CC[C@]12C [LCAHA, N-(hydroxy)-3-hydroxylithocholanamide]
phosphorylation of Akt (S473) (HCT116 p53^wt cells [1]; 5 μM, 24–32 hr): increase of the phosphorylation
phosphorylation of GSK-3β (S9) (HCT116 p53^wt cells [1]; 5 μM, 24–32 hr): increase of the phosphorylation
expression of p27 (HCT116 p53^wt cells [1]; 5 or 20 μM, 48 hr, HCT116 cells (Figures 2A and S3A)): not altered
expression of proteins encoded by p53-target genes (MDM2 and p21) and of p53 (HCT116 p53^wt cells [1]; 24 or 48 hr): did not induce
entry into the S phase after serum release (MCF-7 cells [2]): significantly inhibited the entry into the S phase
level of CCND1 mRNA [3]: did not change
viability (MTT) (MCF-7 cells [4]): biphasic, dose-dependent decrease of viability
viability (MTT) (SAOS-2 cells): viability decrease was observed only at high concentrations
viability (MTT) (U-2 OS cells [5]): biphasic, dose-dependent decrease of viability
caspase 3 and 7 activity (HCT116 p53^wt cells [6]; 10 μM): increase of caspase activity significant
caspase 3 and 7 activity (HCT116 p53^wt cells [6]; 1 or 5 μM, 48 or 72 hr): weak and non-significant increase
cyclin D1 expression (U-2 OS cells [7]): significant decrease of cyclin D1 expression
cyclin D1 level over time course (HCT116 p53^wt cells [8]; 5 μM, 24, 26, 28, 30, or 32 hr): significant decrease in cyclin D1
cyclin D1 expression (HCT116 p53^wt cells [8]; 5 or 20 μM, 48 hr): significant, dose-dependent decrease
cyclin D3 expression (HCT116 p53^wt cells [8]; 5 or 20 μM, 48 hr): no effect
cyclin D1 expression (HCT116 p53^−/− cells): significant, dose-dependent decrease
cyclin D3 expression (HCT116 p53^−/− cells): no effect
expression level of Aurora A (HCT116 cells): significant decrease
expression level of cyclin A1 (HCT116 cells): significant decrease
mean nuclei number per picture (HCT116 p53^wt cells [9]; first (lowest) of increasing concentrations): 3957
mean nuclei number per picture (HCT116 p53^wt cells [9]; second of increasing concentrations): 4229
mean nuclei number per picture (HCT116 p53^wt cells [9]; third (highest) of increasing concentrations): 2783
